This passage reports IC50 results from patent US20250382305A1 (PTC THERAPEUTICS, INC., priority 2022, published 2025).

For one test, the system named is ATXN3 pre-mRNA. Kind of test: RT-qPCR Assay to Quantify Exon 4 Skipping in ATXN3 pre-mRNA in Cells. It counts as cell-based. Conditions: percent exon 4 skipping in ATXN3 pre-mRNA, RT-qPCR of cell lysates; average IC50. In a few lines: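 IC50 derives from a dose-response fit of percent exon 4 skipping, quantified by RT-qPCR on crude lysates. Compounds tested as 7-point 3.16-fold dilutions in duplicate; cells (10,000/well) were exposed for 24 h at 37 °C before lysis.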

In test [1] the test system is Total ATXN3 (tATXN3) protein. Kind of test: Endogenous Total ATXN3 (tATXN3) Protein Assay (MSD immunoassay of cell lysates). The format is cell-based. Conditions: average IC50, total ATXN3 protein in cell lysate after 48 h with compound (Table 1). A digest of the protocol: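 By electrochemiluminescent MSD sandwich immunoassay (mouse monoclonal capture, rabbit monoclonal and SULFO-TAG anti-rabbit detection), endogenous ATXN3 was quantified in lysates of cells treated 48 h at 37° C at 10,000 cells/well. Treatment used a 7-point 3.16-fold duplicate dilution series, with average IC50 grouped into star categories.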

On to `NC1CCCOC1c1sc2c(NCc3ccccc3F)cc(Cl)nc2c1Cl` (mixture of isomers) [Compound 24, 2-((2R,3R)-3-aminotetrahydro-2H-pyran-2-yl)-3,5-dichloro-N-(2-fluorobenzyl)thieno[3,2-b]pyridin-7-amine and 2-((2S,3S)-3-aminotetrahydro-2H-pyran-2-yl)-3,5-dichloro-N-(2-fluorobenzyl)thieno[3,2-b]pyridin-7-amine], for which the IC50 (in the test with ATXN3 pre-mRNA; in test [1]) was 30 to 300 nM in each case.

As to `N[C@H]1CC=CC[C@@H]1c1sc2c(NCc3ccccc3)cc(Cl)nc2c1I` [Compound 190, 2-((1S,6S)-6-aminocyclohex-3-en-1-yl)-N-benzyl-5-chloro-3-iodothieno[3,2-b]pyridin-7-amine], the IC50 (in the test with ATXN3 pre-mRNA; in test [1]) was at most 30 nM throughout.

Consider `N[C@H]1CCCO[C@H]1c1sc2c(NCc3cccs3)cc(Cl)nc2c1Cl` [Compound 19, 2-((2R,3S)-3-aminotetrahydro-2H-pyran-2-yl)-3,5-dichloro-N-(thiophen-2-ylmethyl)thieno[3,2-b]pyridin-7-amine], for which the IC50 (with ATXN3 pre-mRNA; in test [1]) was 30 to 300 nM throughout.

For the compound `Cc1c([C@@H]2CC=CC[C@H]2N)n(C(F)F)c2c(NCc3ccco3)nc(Cl)nc12.Cc1c([C@H]2CC=CC[C@@H]2N)n(C(F)F)c2c(NCc3ccco3)nc(Cl)nc12` (mixture of isomers) [Compound 358, 6-((1R,6R)-6-aminocyclohex-3-en-1-yl)-2-chloro-5-(difluoromethyl)-N-(furan-2-ylmethyl)-7-methyl-5H-pyrrolo[3,2-d]pyrimidin-4-amine and 6-((1S,6S)-6-aminocyclohex-3-en-1-yl)-2-chloro-5-(difluoromethyl)-N-(furan-2-ylmethyl)-7-methyl-5H-pyrrolo[3,2-d]pyrimidin-4-amine], the IC50 (in the test on ATXN3 pre-mRNA; in test [1]) was 30 to 300 nM throughout.

As for `Cc1c([C@@H]2CC=CC[C@H]2N)sc2c(NCc3cccs3)cc(Cl)nc12` [Compound 220, 2-((1R,6R)-6-aminocyclohex-3-en-1-yl)-5-chloro-3-methyl-N-(thiophen-2-ylmethyl)thieno[3,2-b]pyridin-7-amine], the concentration for half-maximal inhibition (IC50) (with ATXN3 pre-mRNA; in test [1]) was at most 30 nM in each case.

For the compound `N[C@@H]1CCCC[C@H]1c1sc2c(NCc3cccs3)cc(Cl)nc2c1Br` [Compound 54, 2-((1R,2R)-2-aminocyclohexyl)-3-bromo-5-chloro-N-(thiophen-2-ylmethyl)thieno[3,2-b]pyridin-7-amine], the IC50 (in the test with ATXN3 pre-mRNA; in test [1]) was 30 to 300 nM in each case.

`N[C@@H]1CC=CC[C@H]1c1sc2c(NCc3ccccc3)cc(Cl)nc2c1Cl` [Compound 404, 2-((1R,6R)-6-aminocyclohex-3-en-1-yl)-N-benzyl-3,5-dichlorothieno[3,2-b]pyridin-7-amine]: the IC50 (in the test with ATXN3 pre-mRNA; in test [1]) was 30 to 300 nM in each case.

On to `N[C@@H]1CCCC[C@H]1c1c(I)c2nc(Cl)nc(NCc3ccco3)c2n1C(F)F` [Compound 391, 6-((1R,2R)-2-aminocyclohexyl)-2-chloro-5-(difluoromethyl)-N-(furan-2-ylmethyl)-7-iodo-5H-pyrrolo[3,2-d]pyrimidin-4-amine], for which the IC50 (with ATXN3 pre-mRNA; in test [1]) was 300 to 1000 nM each time.

As for `N[C@H]1CC=CC[C@@H]1c1sc2c(NCc3ccncc3F)cc(Cl)nc2c1Cl` [Compound 239, 2-((1S,6S)-6-aminocyclohex-3-en-1-yl)-3,5-dichloro-N-((3-fluoropyridin-4-yl)methyl)thieno[3,2-b]pyridin-7-amine], the IC50 (with ATXN3 pre-mRNA; in test [1]) was at most 30 nM each time.

In the case of `Cc1c([C@H]2COCC[C@@H]2N)sc2c(NCc3cccs3)cc(Cl)nc12` [Compound 232, 2-((3R,4S)-4-aminotetrahydro-2H-pyran-3-yl)-5-chloro-3-methyl-N-(thiophen-2-ylmethyl)thieno[3,2-b]pyridin-7-amine], the IC50 (with ATXN3 pre-mRNA; in test [1]) was at most 30 nM each time.

For the compound `Cc1c([C@H]2CC=CC[C@@H]2N)sc2c(NCc3cccs3)nc(Cl)nc12` [Compound 268, 6-((1S,6S)-6-aminocyclohex-3-en-1-yl)-2-chloro-7-methyl-N-(thiophen-2-ylmethyl)thieno[3,2-d]pyrimidin-4-amine], the IC50 (in the test with ATXN3 pre-mRNA; in test [1]) was 30 to 300 nM each time.

“6-((3R,4S)-3-aminotetrahydro-2H-pyran-4-yl)-2-chloro-N-(furan-2-ylmethyl)-7-iodothieno[3,2-d]pyrimidin-4-amine and 6-((3S,4R)-3-aminotetrahydro-2H-pyran-4-yl)-2-chloro-N-(furan-2-ylmethyl)-7-iodothieno[3,2-d]pyrimidin-4-amine [Compound 245]”: the IC50 (in the test on ATXN3 pre-mRNA; in test [1]) was at most 30 nM each time.

As to `Cc1c([C@@H]2CCC[C@H]2N)sc2c(NCc3ccccc3)cc(Cl)nc12` [Compound 160, 2-((1R,2R)-2-aminocyclopentyl)-N-benzyl-5-chloro-3-methylthieno[3,2-b]pyridin-7-amine], the half-maximal inhibitory concentration (IC50) (with ATXN3 pre-mRNA; in test [1]) was above 1000 nM throughout.

With `N[C@@H]1CC=CC[C@H]1c1sc2c(NCc3ccco3)nc(Cl)nc2c1Br` [Compound 396, 6-((1R,6R)-6-aminocyclohex-3-en-1-yl)-7-bromo-2-chloro-N-(furan-2-ylmethyl)thieno[3,2-d]pyrimidin-4-amine], the values for the IC50 (in the test on ATXN3 pre-mRNA; in test [1]) were 30 to 300 nM and 300 to 1000 nM, respectively.

For the compound `N[C@H]1CCCC[C@@H]1c1sc2c(NCc3ccncc3)cc(Cl)nc2c1Br` [Compound 197, 2-((1S,2S)-2-aminocyclohexyl)-3-bromo-5-chloro-N-(pyridin-4-ylmethyl)thieno[3,2-b]pyridin-7-amine], the IC50 (in the test with ATXN3 pre-mRNA; in test [1]) was at most 30 nM each time.

Turning to `CCc1c([C@@H]2CCCCCC[C@H]2N)sc2c(NCc3cccs3)cc(Cl)nc12` [Compound 158, 2-((1R,2R)-2-aminocyclooctyl)-5-chloro-3-ethyl-N-(thiophen-2-ylmethyl)thieno[3,2-b]pyridin-7-amine], the IC50 (in the test on ATXN3 pre-mRNA; in test [1]) was above 1000 nM each time.

For the compound `N[C@H]1CC=CC[C@@H]1c1sc2c(NCc3ccco3)cc(Cl)nc2c1I` [Compound 188, 2-((1S,6S)-6-aminocyclohex-3-en-1-yl)-5-chloro-N-(furan-2-ylmethyl)-3-iodothieno[3,2-b]pyridin-7-amine], the 50% inhibitory concentration (IC50) (in the test on ATXN3 pre-mRNA; in test [1]) was at most 30 nM each time.

For the compound `N[C@H]1CCCO[C@@H]1c1c(Cl)c2nc(Cl)cc(NCc3ccco3)c2n1C(F)F` [Compound 273, 2-((2S,3S)-3-aminotetrahydro-2H-pyran-2-yl)-3,5-dichloro-1-(difluoromethyl)-N-(furan-2-ylmethyl)-1H-pyrrolo[3,2-b]pyridin-7-amine], the IC50 with ATXN3 pre-mRNA was at most 30 nM; in test [1], 30 to 300 nM.

`N[C@H]1CCCO[C@@H]1c1sc2c(NCc3ccncc3)cc(Cl)nc2c1Br` [Compound 251, 2-((2S,3S)-3-aminotetrahydro-2H-pyran-2-yl)-3-bromo-5-chloro-N-(pyridin-4-ylmethyl)thieno[3,2-b]pyridin-7-amine]: the IC50 with ATXN3 pre-mRNA is at most 30 nM; in test [1] it was 30 to 300 nM.

“2-((1R,2R)-2-aminocyclohexyl)-N-benzyl-5-chloro-3-iodothieno[3,2-b]pyridin-7-amine and 2-((1S,2S)-2-aminocyclohexyl)-N-benzyl-5-chloro-3-iodothieno[3,2-b]pyridin-7-amine [Compound 295]”: the IC50 (in the test with ATXN3 pre-mRNA; in test [1]) was 30 to 300 nM in each case.

For the compound `N[C@@H]1C[C@@H]2C[C@@H]2C[C@H]1c1sc2c(NCc3cccs3)cc(Cl)nc2c1Br.N[C@H]1C[C@H]2C[C@H]2C[C@@H]1c1sc2c(NCc3cccs3)cc(Cl)nc2c1Br` (mixture of isomers) [Compound 290, 2-((1R,3R,4R,6S)-4-aminobicyclo[4.1.0]heptan-3-yl)-3-bromo-5-chloro-N-(thiophen-2-ylmethyl)thieno[3,2-b]pyridin-7-amine and 2-((1S,3S,4S,6R)-4-aminobicyclo[4.1.0]heptan-3-yl)-3-bromo-5-chloro-N-(thiophen-2-ylmethyl)thieno[3,2-b]pyridin-7-amine], the IC50 (in the test with ATXN3 pre-mRNA; in test [1]) was 30 to 300 nM in each case.

`Cc1c([C@H]2CC=CC[C@@H]2N)n(C(F)F)c2c(NCc3ccccc3)nc(Cl)nc12` [Compound 399, 6-((1S,6S)-6-aminocyclohex-3-en-1-yl)-N-benzyl-2-chloro-5-(difluoromethyl)-7-methyl-5H-pyrrolo[3,2-d]pyrimidin-4-amine]: the half-maximal inhibitory concentration (IC50) (with ATXN3 pre-mRNA; in test [1]) was 300 to 1000 nM in each case.

For the compound `N[C@H]1CC=CC[C@@H]1c1sc2c(NCc3ccccc3)cc(Cl)nc2c1Br` [Compound 194, 2-((1S,6S)-6-aminocyclohex-3-en-1-yl)-N-benzyl-3-bromo-5-chlorothieno[3,2-b]pyridin-7-amine], the IC50 (with ATXN3 pre-mRNA; in test [1]) was at most 30 nM in each case.

For the compound `Cc1c([C@@H]2OCCC[C@H]2N)sc2c(NCc3cccs3)cc(Cl)nc12` (single isomer, unassigned) [Compound 45, 2-((2R,3R)-3-aminotetrahydro-2H-pyran-2-yl)-5-chloro-3-methyl-N-(thiophen-2-ylmethyl)thieno[3,2-b]pyridin-7-amine or 2-((2S,3S)-3-aminotetrahydro-2H-pyran-2-yl)-5-chloro-3-methyl-N-(thiophen-2-ylmethyl)thieno[3,2-b]pyridin-7-amine], the half-maximal inhibitory concentration (IC50) (with ATXN3 pre-mRNA; in test [1]) was at most 30 nM in each case.

With `N[C@H]1CCCC[C@H]1c1sc2c(NCc3cccs3)cc(Cl)nc2c1Br` [Compound 53, 2-((1R,2S)-2-aminocyclohexyl)-3-bromo-5-chloro-N-(thiophen-2-ylmethyl)thieno[3,2-b]pyridin-7-amine], the IC50 (in the test on ATXN3 pre-mRNA; in test [1]) was 300 to 1000 nM throughout.
